Measurements: PubChem BioAssay AID256 (DTP/NCI, 2004)
Several values for one entry are separate records, joined by “and”; a condition that tells them apart may be missing. Equal values may be shown once. Toxic doses and inconclusive results are not listed. How the source made its calls: active means survival T/C of 150% or more; inactive means T/C below 125% in these data.

System: CD2F1 mice, L1210 leukemia ip, survival T/C
Assay: NCI In Vivo Anticancer Drug Screen. Data for tumor model L1210 Leukemia (intraperitoneal) in CD2F1 (CDF1) mice
Settings: endpoint: mean survival time, higher = longer survival
Method in brief: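 Implant tumor; dose compound or vehicle; measure endpoint in both groups; report treated divided by control.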

[1] = dose: 100.0 mg/kg/injection, schedule: Q01DX009 (ip), vehicle: saline with Tween-80
[2] = dose: 200.0 mg/kg/injection, schedule: Q01DX009 (ip), vehicle: saline with Tween-80
[3] = dose: 400.0 mg/kg/injection, schedule: Q01DX009 (ip), vehicle: saline with Tween-80
[4] = dose: 100.0 mg/kg/injection, schedule: Q04DX003 (ip), vehicle: saline with Tween-80
[5] = dose: 200.0 mg/kg/injection, schedule: Q04DX003 (ip), vehicle: saline with Tween-80
[6] = dose: 400.0 mg/kg/injection, schedule: Q04DX003 (ip), vehicle: saline with Tween-80

Measured: T/C

[I][Pt+2][I].[NH-]c1ccc(S(=O)(=O)Nc2ccccn2)cc1.[NH-]c1ccc(S(=O)(=O)Nc2ccccn2)cc1
inactive: dose: 20.31 mg/kg/injection, schedule: Q04DX003 (ip), vehicle: saline with Tween-80 105 % of control | dose: 40.63 mg/kg/injection, schedule: Q04DX003 (ip), vehicle: saline with Tween-80 105 % of control | dose: 81.25 mg/kg/injection, schedule: Q04DX003 (ip), vehicle: saline with Tween-80 90 % of control | dose: 162.5 mg/kg/injection, schedule: Q04DX003 (ip), vehicle: saline with Tween-80 94 % of control | dose: 325.0 mg/kg/injection, schedule: Q04DX003 (ip), vehicle: saline with Tween-80 102 % of control

CCCCC(CCC)(CCN)CCCC
inactive: dose: 3.0 mg/kg/injection, schedule: Q01DX009 (ip), vehicle: saline 106 % of control | dose: 6.0 mg/kg/injection, schedule: Q01DX009 (ip), vehicle: saline 98 % of control | dose: 12.0 mg/kg/injection, schedule: Q01DX009 (ip), vehicle: saline 104 % of control | dose: 12.5 mg/kg/injection, schedule: Q04DX003 (ip), vehicle: saline 103 % of control

CC(=O)NCc1cnccn1
inactive: dose: 100.0 mg/kg/injection, schedule: Q04DX003 (ip), vehicle: saline sonified 103 % of control | dose: 200.0 mg/kg/injection, schedule: Q04DX003 (ip), vehicle: saline sonified 102 % of control | dose: 400.0 mg/kg/injection, schedule: Q04DX003 (ip), vehicle: saline sonified 102 % of control

Nc1ccc(CSc2ccc(Cl)cc2)cc1
inactive: dose: 400.0 mg/kg/injection, schedule: Q04DX002 (ip), vehicle: Klucel (hydroxypropylcellulose) (HPC) 89 % of control

O=[N+]([O-])C1=C(c2ccccc2)SC=C(c2ccccc2)S1
inactive: dose: 100.0 mg/kg/injection, schedule: Q01DX001 (ip), vehicle: saline with Tween-80 87 % of control | dose: 200.0 mg/kg/injection, schedule: Q01DX001 (ip), vehicle: saline with Tween-80 97 % of control | dose: 400.0 mg/kg/injection, schedule: Q01DX001 (ip), vehicle: saline with Tween-80 105 % of control

O=C1OC(c2ccccc2)=N/C1=C\c1cccc(O)c1
inactive: [1] 104 % of control | [2] 109 % of control | [3] 98 % of control

CN(C)S(=O)(=O)c1ccccc1C(O)(c1ccccc1)c1ccccc1
inactive: [1] 103 % of control | [4] 104 % of control | [2] 94 % of control | [5] 101 % of control | [3] 101 % of control | [6] 98 % of control

C=CCC(c1ccccc1)(c1ccccc1)c1ccccc1
inactive: dose: 75.0 mg/kg/injection, schedule: Q01DX001 (ip), vehicle: saline 93 % of control | dose: 150.0 mg/kg/injection, schedule: Q01DX001 (ip), vehicle: saline 95 % of control | dose: 300.0 mg/kg/injection, schedule: Q01DX001 (ip), vehicle: saline 97 % of control

O=[N+]([O-])c1cc(S(=O)(=O)O)cc([N+](=O)[O-])c1Cl
inactive: dose: 25.0 mg/kg/injection, schedule: Q01DX009 (ip), vehicle: saline 103 % of control | dose: 50.0 mg/kg/injection, schedule: Q01DX009 (ip), vehicle: saline 96 % of control | dose: 100.0 mg/kg/injection, schedule: Q01DX009 (ip), vehicle: saline 98 % of control and 103 % of control

CC(=O)OCC(Br)C(Br)COC(C)=O (stereo not drawn)
inactive: [4] 100 % of control | [5] 100 % of control | [6] 97 % of control

C=C(C)C1CCC2(C(=O)OC)CCC3(C)C(CCC4C5(C)CCC(OC6CCCCO6)C(C)(C)C5CCC43C)C12 (stereo not drawn)
inactive: dose: 6.25 mg/kg/injection, schedule: Q04DX002 (ip), vehicle: saline with Tween-80 103 % of control | dose: 12.5 mg/kg/injection, schedule: Q04DX002 (ip), vehicle: saline with Tween-80 95 % of control | dose: 25.0 mg/kg/injection, schedule: Q04DX002 (ip), vehicle: saline with Tween-80 86 % of control

Cc1cccc(C)c1N=NN(C)C
inactive: dose: 6.25 mg/kg/injection, schedule: Q01DX009 (ip), vehicle: saline with Tween-80 107 % of control | dose: 12.5 mg/kg/injection, schedule: Q01DX009 (ip), vehicle: other 90 % of control | dose: 12.5 mg/kg/injection, schedule: Q01DX009 (ip), vehicle: saline with Tween-80 104 % of control | dose: 25.0 mg/kg/injection, schedule: Q01DX009 (ip), vehicle: other 100 % of control | dose: 25.0 mg/kg/injection, schedule: Q01DX009 (ip), vehicle: saline with Tween-80 118 % of control

CCN(CC)CCN1CC2CC=CCC2C1 (stereo not drawn)
inactive: [1] 96 % of control
